“And” between values parts separate entries of the source, which are not always exact repeats. Equal entries are not always repeated. Numbers after ± are expanded uncertainties.
Details: Liquid; for viscosity: Falling or rolling sphere viscometry; for mass density: 101.33 kPa, Vibrating tube method

CCCC[n+]1ccn(C)c1.O=S(=O)([N-]S(=O)(=O)C(F)(F)F)C(F)(F)F
Details | viscosity
273.15 K, 100 kPa | 191.3 ± 10 mPa·s and 191.6 ± 10 mPa·s
278.15 K, 100 kPa | 140.4 ± 6.6 mPa·s
283.15 K, 100 kPa | 106.1 ± 4.4 mPa·s
283.15 K, 24300 kPa | 146.8 ± 6.9 mPa·s
283.15 K, 49900 kPa | 205.8 ± 11 mPa·s
283.15 K, 74100 kPa | 280.3 ± 18 mPa·s
288.15 K, 100 kPa | 81.6 ± 3 mPa·s
293.15 K, 100 kPa | 63.8 ± 2.2 mPa·s and 63.9 ± 2.2 mPa·s
298.15 K, 100 kPa | 50.9 ± 1.7 mPa·s and 51 ± 1.7 mPa·s and 51.1 ± 1.7 mPa·s
298.15 K, 24300 kPa | 68.1 ± 2.3 mPa·s
298.15 K, 49300 kPa | 90.9 ± 3.4 mPa·s
298.15 K, 76900 kPa | 124 ± 5.4 mPa·s
298.15 K, 101500 kPa | 161.5 ± 7.8 mPa·s
298.15 K, 126400 kPa | 210.3 ± 12 mPa·s
298.15 K, 150200 kPa | 269.4 ± 17 mPa·s
303.15 K, 100 kPa | 41.5 ± 1.4 mPa·s
313.15 K, 100 kPa | 28.5 ± 1 mPa·s
323.15 K, 100 kPa | 20.5 ± 0.7 mPa·s and 20.6 ± 0.7 mPa·s and 20.7 ± 0.7 mPa·s
323.15 K, 26400 kPa | 26.9 ± 0.9 mPa·s
323.15 K, 35600 kPa | 29.2 ± 1 mPa·s
323.15 K, 52000 kPa | 34.6 ± 1.2 mPa·s
323.15 K, 53900 kPa | 34.8 ± 1.2 mPa·s
323.15 K, 69800 kPa | 40.2 ± 1.4 mPa·s
323.15 K, 75000 kPa | 41.6 ± 1.5 mPa·s
323.15 K, 101600 kPa | 53.9 ± 2.3 mPa·s
323.15 K, 103600 kPa | 54.4 ± 2.3 mPa·s
323.15 K, 123600 kPa | 64.3 ± 2.2 mPa·s
323.15 K, 152800 kPa | 83.6 ± 3.1 mPa·s
323.15 K, 200300 kPa | 123.2 ± 5.3 mPa·s
323.15 K, 226000 kPa | 151.2 ± 7.1 mPa·s
323.15 K, 249600 kPa | 183.2 ± 9.4 mPa·s
333.15 K, 100 kPa | 15.4 ± 0.5 mPa·s and 15.5 ± 0.5 mPa·s
343.15 K, 100 kPa | 12 ± 0.4 mPa·s
348.15 K, 100 kPa | 10.6 ± 0.4 mPa·s and 10.7 ± 0.4 mPa·s
348.15 K, 800 kPa | 10.7 ± 0.4 mPa·s
348.15 K, 25700 kPa | 13.4 ± 0.5 mPa·s
348.15 K, 50700 kPa | 16.4 ± 0.6 mPa·s
348.15 K, 75600 kPa | 19.9 ± 0.7 mPa·s
348.15 K, 100900 kPa | 24.2 ± 0.8 mPa·s
348.15 K, 125500 kPa | 29 ± 1 mPa·s
348.15 K, 150600 kPa | 34.6 ± 1.2 mPa·s
348.15 K, 175400 kPa | 40.9 ± 1.4 mPa·s
348.15 K, 175600 kPa | 41 ± 1.4 mPa·s
348.15 K, 200600 kPa | 48.6 ± 1.7 mPa·s
348.15 K, 225400 kPa | 57.4 ± 2 mPa·s
348.15 K, 249700 kPa | 67.3 ± 2.4 mPa·s
348.15 K, 274500 kPa | 79 ± 2.9 mPa·s
348.15 K, 298900 kPa | 92.6 ± 3.6 mPa·s
353.15 K, 100 kPa | 9.53 ± 0.32 mPa·s

Details | mass density
273.15 K | 1460.67 ± 12 kg/m3
278.15 K | 1455.84 ± 12 kg/m3
283.15 K | 1451.04 ± 12 kg/m3
288.15 K | 1446.23 ± 11 kg/m3
293.15 K | 1441.43 ± 11 kg/m3 and 1441.42 ± 11 kg/m3
298.15 K | 1436.64 ± 11 kg/m3 and 1436.6 ± 11 kg/m3
303.15 K | 1431.86 ± 11 kg/m3
313.15 K | 1422.34 ± 11 kg/m3
323.15 K | 1412.87 ± 11 kg/m3 and 1412.85 ± 11 kg/m3
333.15 K | 1403.48 ± 11 kg/m3
343.15 K | 1394.15 ± 11 kg/m3
353.15 K | 1384.88 ± 10 kg/m3
363.15 K | 1375.67 ± 10 kg/m3

CCCCCCn1cc[n+](C)c1.F[P-](F)(F)(F)(F)F [1-hexyl-3-methylimidazolium hexafluorophosphate]
Details | viscosity
273.15 K, 100 kPa | 3924 ± 590 mPa·s
278.15 K, 100 kPa | 2428 ± 330 mPa·s
283.15 K, 100 kPa | 1566 ± 190 mPa·s and 1565 ± 190 mPa·s
288.15 K, 100 kPa | 1036 ± 110 mPa·s and 1035 ± 110 mPa·s
293.15 K, 100 kPa | 705.1 ± 66 mPa·s
298.15 K, 100 kPa | 496.4 ± 41 mPa·s and 496.5 ± 41 mPa·s
298.15 K, 22000 kPa | 685.3 ± 63 mPa·s
298.15 K, 42100 kPa | 917.7 ± 93 mPa·s
298.15 K, 60300 kPa | 1190 ± 130 mPa·s
298.15 K, 80300 kPa | 1572 ± 190 mPa·s
298.15 K, 100100 kPa | 2064 ± 260 mPa·s
303.15 K, 100 kPa | 356.9 ± 26 mPa·s and 356.8 ± 26 mPa·s
313.15 K, 100 kPa | 197 ± 11 mPa·s
313.15 K, 400 kPa | 197.3 ± 11 mPa·s
313.15 K, 25700 kPa | 276.7 ± 18 mPa·s
313.15 K, 50800 kPa | 381.8 ± 28 mPa·s
313.15 K, 76000 kPa | 521.9 ± 44 mPa·s
313.15 K, 101400 kPa | 708.3 ± 67 mPa·s
313.15 K, 125200 kPa | 939.3 ± 96 mPa·s
313.15 K, 150000 kPa | 1254 ± 140 mPa·s
323.15 K, 100 kPa | 119.2 ± 5.1 mPa·s and 117 ± 5 mPa·s
323.15 K, 7600 kPa | 118.3 ± 5 mPa·s
323.15 K, 25800 kPa | 161.7 ± 8.1 mPa·s
323.15 K, 50600 kPa | 217.1 ± 12 mPa·s
323.15 K, 76000 kPa | 290.7 ± 19 mPa·s
323.15 K, 100900 kPa | 384 ± 29 mPa·s
323.15 K, 125800 kPa | 503.9 ± 42 mPa·s
323.15 K, 150100 kPa | 655 ± 59 mPa·s
323.15 K, 174800 kPa | 850.1 ± 84 mPa·s
333.15 K, 100 kPa | 75.2 ± 2.7 mPa·s and 74.4 ± 2.6 mPa·s
333.15 K, 40500 kPa | 118.5 ± 5 mPa·s
333.15 K, 80800 kPa | 182.8 ± 9.5 mPa·s
333.15 K, 120800 kPa | 275.7 ± 18 mPa·s
333.15 K, 160600 kPa | 408.7 ± 31 mPa·s
333.15 K, 200100 kPa | 598.9 ± 52 mPa·s
343.15 K, 100 kPa | 49.7 ± 1.7 mPa·s
348.15 K, 100 kPa | 41.3 ± 1.4 mPa·s
348.15 K, 800 kPa | 41.9 ± 1.4 mPa·s
348.15 K, 40700 kPa | 63.7 ± 2.2 mPa·s
348.15 K, 80800 kPa | 94.2 ± 3.7 mPa·s
348.15 K, 120700 kPa | 136.4 ± 6.3 mPa·s
348.15 K, 160600 kPa | 194.8 ± 11 mPa·s
348.15 K, 200200 kPa | 274.5 ± 18 mPa·s
348.15 K, 238500 kPa | 378 ± 28 mPa·s
353.15 K, 100 kPa | 34.8 ± 1.2 mPa·s

Details | mass density
273.15 K | 1313.39 ± 9.4 kg/m3
278.15 K | 1309.33 ± 9.3 kg/m3
283.15 K | 1305.29 ± 9.3 kg/m3
288.15 K | 1301.26 ± 9.2 kg/m3
293.15 K | 1297.24 ± 9.2 kg/m3
298.15 K | 1293.22 ± 9.1 kg/m3
303.15 K | 1289.21 ± 9.1 kg/m3
313.15 K | 1281.17 ± 8.9 kg/m3
323.15 K | 1273.44 ± 8.8 kg/m3
333.15 K | 1265.69 ± 8.7 kg/m3 and 1265.68 ± 8.7 kg/m3
343.15 K | 1257.96 ± 8.6 kg/m3
353.15 K | 1250.28 ± 8.5 kg/m3
363.15 K | 1242.64 ± 8.4 kg/m3
